Experiments:
erythrocytes = test: Measurement of lysis time of erythrocytes (absorbance at 650 nm, micro-plate reader); type: cell-based, human
Experimental: As a sample containing erythrocytes, blood that had been collected from a vein of a healthy person by use of a vacuum blood-collecting vessel (EDTA including 2K) was used. 30 μL of the sample containing the blood was dispensed onto a 96-well microplate, in which 30 μL of the aqueous solution of surfactant was mixed and stirred five times with pipetting, thereby allowing the reaction solution to react homogeneously. The absorbance was measured every one minute with a micro-plate reader. The moment at which the absorbance became 0.5 or lower at a wavelength of 650 nm was determined as the lysis of the blood cells. The results are shown in Table 3 below (Examples 1 and 2). In Examples 1 and 2, the absorbance reached 0.5 within the time period from 30 minutes to 60 minutes after starting the measurement. On the other hand, in Comparative Example 9 where the aqueous solution of the surfactant was replaced by distilled water, the absorbance did never reach 0.5 even 60 minutes after from the start of the measurement. The micro-plate reader used herein was Thermo Labsystems Multiskan Ascent 35 manufactured by Thermo Labsystems.

leukocytes = test: Assessment of damage to leukocytes (trypan blue survival rate); type: cell-based
Experimental: Leukocytes were separated from 10 ml of fresh blood in accordance with HetaSep protocol (manufactured by STEMCELL (trade name) Technologies), which was suspended in 1 ml of PBS(−) and collected in a 1.5 ml disposable microtube (a microcentrifuge tube with trade name of DSP-MC-15A manufactured by Nichiryo Co., Ltd.). Since a small amount of erythrocytes were still included in the separated leukocytes, the erythrocytes were eliminated by using ammonium chloride (supplied by STEMCELL (trade name) Technologies) in accordance with the attached document, and the leukocytes were collected through centrifugation, washed in PBS(−), and then suspended in 1 ml of a serum-including medium. 50 μL of leukocyte suspension in the serum-including medium and 50 μL of the aqueous solution of the surfactant were mixed in the 1.5 ml microcentrifuge tube, and the mixed solution was stirred with pipetting about five times so that the solution would be homogeneous. […] Provided that the number of cells in a reaction liquid to which distilled water had been added in place of the reagent being 100%, the survival rate was calculated from the number of cells survived 10 minutes after (Example 1) and 30 minutes after (Example 2) from the reaction with the aqueous solution of surfactant.

[1] = tested on: SNU-1 gastric cancer cells; test: Assessment of damage to cancer cells (trypan blue survival rate), SNU-1; type: cell-based, human; conditions: 10 minutes after a contact with surfactant, 2.5 w/v %
Experimental: Cells of SNU-1, MCF-7, SW620, PC3, and NCI-358 derived from gastric cancer, breast cancer, large intestinal cancer, prostate cancer, and lung cancer were prepared to be 2×10^6 Cells/ml and used. The cancer cells were prepared in the following manner. 50 μL of a cancer cell suspension in the serum-including medium and 50 μL of the aqueous solution of the surfactant were added into the 1.5 ml microcentrifuge tube, stirred with pipetting so as to make the solution homogeneous. Later, the solution was allowed to stand at an ambient temperature of 23° C. for about 10 minutes so as to proceed the reaction. […] Provided that the number of cells in a reaction liquid to which distilled water had been added in place of the reagent being 100%, the survival rate was calculated from the number of cells survived 10 minutes after (Example 1) and 30 minutes after (Example 2) from the reaction with the aqueous solution of the surfactant. […]
A mixture of the surfactant No. 1 and either the surfactant No. 2 or No. 3 was prepared at a mixing ratio of 10:0 to 0:10 (weight ratio: the total concentration of the surfactants was 2.5 w/v %). […] The survival rate was calculated from the number of cells survived after the reaction with the mixture of surfactants, provided that the number of cells in a reaction liquid to which distilled water had been added in place of the reagent being 100%. […]

[2] = tested on: MCF-7 breast cancer cells; test: Assessment of damage to cancer cells (trypan blue survival rate), MCF-7; type: cell-based, human; conditions: 10 minutes after a contact with surfactant, 2.5 w/v %
Experimental: (§1) Cells of SNU-1, MCF-7, SW620, PC3, and NCI-358 derived from gastric cancer, breast cancer, large intestinal cancer, prostate cancer, and lung cancer were prepared to be 2×10^6 Cells/ml and used. The cancer cells were prepared in the following manner. 50 μL of a cancer cell suspension in the serum-including medium and 50 μL of the aqueous solution of the surfactant were added into the 1.5 ml microcentrifuge tube, stirred with pipetting so as to make the solution homogeneous. Later, the solution was allowed to stand at an ambient temperature of 23° C. for about 10 minutes so as to proceed the reaction. Then, the reaction liquid in the microcentrifuge tube was stirred with pipetting so as to disperse the cells, and subsequently, 50 μL of the liquid was dispensed into another microcentrifuge tube and 50 μL of 0.4% trypan blue stain solution (Invitrogen) was mixed therein. This was injected into a counting chamber so as to count living cells that had not been stained with the trypan blue. Provided that the number of cells in a reaction liquid to which distilled water had been added in place of the reagent being 100%, the survival rate was calculated from the number of cells survived 10 minutes after (Example 1) and 30 minutes after (Example 2) from the reaction with the aqueous solution of the surfactant. […]

[3] = tested on: SW620 large intestinal cancer cells; test: Assessment of damage to cancer cells (trypan blue survival rate), SW620; type: cell-based, human; conditions: 10 minutes after a contact with surfactant, 2.5 w/v %
Experimental: as §1

[4] = tested on: PC3 prostate cancer cells; test: Assessment of damage to cancer cells (trypan blue survival rate), PC3; type: cell-based, human; conditions: 10 minutes after a contact with surfactant, 2.5 w/v %
Experimental: as §1

[5] = tested on: NCI-H358 lung cancer cells; test: Assessment of damage to cancer cells (trypan blue survival rate), NCI-H358; type: cell-based, human; conditions: 10 minutes after a contact with surfactant, 2.5 w/v %
Experimental: as §1

polyoxyethylene octyl dodecylether (EO=25) [Surfactant No. 1]
Lysis time to reach absorbance of 0.5 (erythrocytes; surfactant (2.5 w/v %), mixing ratio 2:8 (No. 1 is 80%)): 30 to 60 min | Lysis time to reach absorbance of 0.5 (erythrocytes; surfactant used alone, preparation concentration 2.5 w/v %): 30 to 60 min | selectivity of lowering survival rate, leukocytes against cancer cells (leukocytes; 2.5 w/v % aqueous solution, 10 and 30 minutes): lower selectively the survival rate of the leukocytes rather than cancer cells | Leukocyte survival rate (%) (leukocytes; 10 minutes after contact, 2.5 w/v %, 23° C., distilled water = 100%): 71.8% | Cancer cell survival rate (%) SNU-1 Gastric cancer [1]: 86.1% | Cancer cell survival rate (%) MCF-7 Breast cancer [2]: 112.3% | Cancer cell survival rate (%) SW620 Large intestinal cancer [3]: 81% | Cancer cell survival rate (%) PC3-9 Prostate cancer [4]: 101.8% | Cancer cell survival rate (%) MCI-358 Lung cancer [5]: 89.9%
